We go through one substance from PMC7766124, “Improved Cell Selectivity of Pseudin-2 via Substitution in the Leucine-Zipper Motif: In Vitro and In Vivo Antifungal Activity” (Antibiotics, 2020).

Read-outs that look alike come from different tables or passages of the source. No end group written: not given here.

One series relates to F. moniliforme. Type of series: cell-based, Fusarium moniliforme (KCTC 6149). To be noted: 36 h. From the text:
(§1) Aspergillus flavus (KCTC 6905), A. fumigatus (KCTC 6145), Fusarium moniliforme (KCTC 6149), F. oxysporum (KCTC 16909), C. albicans (KCTC 7270), C. krusei (CCARM 14017), C. parapsilosis (CCARM 14016), C. tropicalis (KCTC 7221), and T. beigelii (KCTC 7707) were obtained from the Korea Collection for Type Cultures (KCTC) and Culture Collection of Antimicrobial Resistant Microbes (CCARM). Mold and yeast fungi were pre-grown on potato dextrose (PD) and yeast extract peptone dextrose (YPD) agars, respectively.
(§2) Antifungal activity of peptides was performed by microtiter plate assays. Fungal conidia from four-day-old molds were collected using 0.08% Triton X-100 (v/v), and pre-cultivated yeast cells were adjusted to 2 × 10^4 spores/mL in 10 mM sodium phosphate buffer (SP, pH 7.2) or 10 mM 2-(N-morpholino)ethanesulfonic acid (MES) buffer (pH 5.5) supplemented with 20% culture medium, followed by addition to peptide solutions (0.25, 0.5, 1, 1.5, 2, 4, 6, 8, 12, 16, 32, 48, and 64 µM) in 96-well microtiter plates. After incubation for 36 h at 28 °C, the hyphal growth of conidia and the proliferation of yeast cells were observed under a light microscope. All assays were performed in triplicate. The MIC values were defined as the lowest concentration of samples that reduced fungal germination (for mold) or cell proliferation (for yeast) by more than 90% [34].

For a further series, the system named is C. tropicalis. Type of series: cell-based, C. tropicalis (KCTC 7221). As to conditions: 36 h.
Text: as §1, §2

The test system of the next series is T. beigelii. Type of series: cell-based, T. beigelii (KCTC 7707). To be noted: 36 h.
Text: as §1, §2

The next series deals with A. fumigatus. Type of series: cell-based, A. fumigatus (KCTC 6145). To be noted: 36 h.
Text: as §1, §2

A further series has as its system F. oxysporum. Format: cell-based, F. oxysporum (KCTC 16909). To be noted: 36 h.
Text: as §1, §2

The subject of another series is HaCaT cells. The series is described as follows: Cytotoxicity, XTT cell viability assay. Format: cell-based, human. As to conditions: peptides 4-256 µM, 24 h incubation, triplicate. The procedure: Cell viability was assessed using sodium XTT assays. HaCaT (human immortalized keratinocytes) cells were cultured in Dulbecco’s modified Eagle medium (DMEM; ThermoFisher Scientific, Gibco, Waltman, MA, USA) supplemented with antibiotic-antimycotic (ThermoFisher Scientific, Gibco) and 10% fetal bovine serum (FBS; ThermoFisher Scientific, Gibco) at 37 °C in a humidified chamber containing 5% CO2. The cells were seeded at 5 × 10^4 cells/mL in flat-bottom 96-well microtiter plates in triplicate. Twenty-four hours later, cells were treated with two-fold serial dilutions of peptides (ranging from 256 to 4 µM) in medium, and the cells were further incubated for 24 h. Next, activated-XTT solution was added to each well and the plates were additionally incubated for 4 h. Absorbance in each well was measured at wavelengths of 480 and 650 nm using a microtiter SpectraMax M5 reader (Molecular Devices, Sunnyvale, CA, USA). Triton X-100 (0.1% v/v) and DMEM were used as controls for survival.

In a further series the test system is C. krusei. Format: cell-based, C. krusei (CCARM 14017). As to conditions: 36 h.
Text: as §1, §2

As for “GLNALKKVFQGIHEAIKLINNHVQ-NH2 [Pseudin-2]”, the MIC is 64 µM against F. moniliforme (pH 5.5); 32 µM in the series on F. moniliforme (pH 7.2); 2 µM against C. tropicalis (pH 5.5); 4 µM in the series with C. tropicalis (pH 7.2); 2 (2) µM with T. beigelii (pH 5.5); 2 (2) µM in the series on T. beigelii (pH 7.2). Also, the MIC with A. fumigatus (pH 5.5) is given as 24 µM; in the series on A. fumigatus (pH 7.2), 64 µM; with F. oxysporum (pH 5.5), 16 µM; against F. oxysporum (pH 7.2), 4 µM; with C. krusei (pH 5.5) it was 8 (8) µM; against C. krusei (pH 7.2), 8 (8) µM. Also, the “cytotoxic effects against HaCaT cells” value in the series with HaCaT cells is listed as “significant, concentration-dependent cytotoxic effects”.
